Results published in US5807688A (priority 1995, dated 1998).
Values joined by “and” are separate entries in the source; they are usually repeats but may differ in a detail not shown here. Identical values can stand only once.

What was measured:
[1] = test system: catalytic monoclonal antibody DF8-D5 (IgG1), elicited to phosphonamidate ester hapten (7.2), hybridoma ECACC 96042612; format: biochemical, mouse; conditions: for Km / kcat / kcat/Km / kcat/kun: pH 6.5
[2] = biological target: monoclonal antibody 6D9, raised to phosphonate haptens (2.53) and (2.54); conditions: cited from earlier work
[3] = biological target: monoclonal antibody EA11-D7 (IgG1), Appendix line 32, elicited to TSA (7.2); format: binding, mouse
[4] = test system: monoclonal antibody AB9-16H6 (IgG1), Appendix line 3, elicited to TSA (7.4); format: binding, mouse; conditions: inhibition elisa; read-out: aK (ELISA) (converted)
[5] = test system: monoclonal antibody AC7-4A10 (IgG1), Appendix line 8, elicited to TSA (7.4); format: binding, mouse; conditions: inhibition elisa; read-out: aK (ELISA) (converted)
[6] = test system: monoclonal antibody CC11-4B4 (IgG1), Appendix line 1, elicited to TSA (7.4); format: binding, mouse; conditions: inhibition elisa; read-out: aK (ELISA) (converted)
[7] = test system: monoclonal antibody DG10-8G7 (IgG1), Appendix line 4, elicited to TSA (7.4); format: binding, mouse; conditions: inhibition elisa; read-out: aK (ELISA)
[8] = test system: chorismate mutase (EC 5.4.99.5), E. coli enzyme; conditions: cited from earlier work
[9] = test system: JAR human choriocarcinoma cell line; conditions: cited from earlier work
[10] = test system: antibody NPN43C9, elicited to phosphonamidate hapten (9.11); parameters: kcat/Km: unit not given here; conditions: cited from earlier work; for Kd: read-out: Kd or Ki
[11] = test system: monoclonal antibody CF7 (IgG2a), Appendix line 14, elicited to TSA (7.2); format: binding, mouse
[12] = biological target: monoclonal antibody CF6 (IgG1), Appendix line 13, elicited to TSA (7.2); format: binding, mouse
[13] = test system: monoclonal antibody 49.AG.659.12; conditions: cited from earlier work
[14] = test system: monoclonal antibody EA11-D7; format: binding, mouse; conditions: read-out: I50
[15] = mouse, in vivo, ip, 0.5 h; cited from earlier work
[16] = biological target: carboxypeptidase G2 (CPG2) (Pseudomonas sp., UniProt P06621); conditions: cited from earlier work
Chain of carboxypeptidase G2 (CPG2) (P06621 23-415): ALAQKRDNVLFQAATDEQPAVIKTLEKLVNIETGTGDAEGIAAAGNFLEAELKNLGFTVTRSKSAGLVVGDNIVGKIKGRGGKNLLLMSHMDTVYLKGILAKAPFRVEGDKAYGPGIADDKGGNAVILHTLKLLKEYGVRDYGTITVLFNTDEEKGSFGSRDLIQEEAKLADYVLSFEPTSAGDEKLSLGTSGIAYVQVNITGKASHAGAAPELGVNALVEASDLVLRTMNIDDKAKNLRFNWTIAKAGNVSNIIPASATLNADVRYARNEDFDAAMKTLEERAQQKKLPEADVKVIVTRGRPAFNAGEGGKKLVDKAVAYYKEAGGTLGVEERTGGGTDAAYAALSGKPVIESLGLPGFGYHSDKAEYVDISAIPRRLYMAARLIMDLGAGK

Structure (SMILES): COc1ccc(OC(=O)Nc2cc(C(=O)O)cc(C(=O)O)c2)cc1 [9.14, 4-methoxyphenyl N-(3,5-dicarboxyphenyl)carbamate]
- Km [1]: 58 µM
- kcat [1]: 0.0817 s⁻¹
- kcat/Km [1]: 0.08 E6
- kcat/kun [1]: 1.2 E6

Structure (SMILES): O=C(N[C@H](CO)[C@H](OP(=O)(O)Cc1ccc(NC(=O)C(F)(F)F)cc1)c1ccc([N+](=O)[O-])cc1)C(Cl)Cl [2.54]
- Ki [2]: 60 nM

Structure (SMILES): O=C(Cc1ccc(NC(=O)C(F)(F)F)cc1)O[C@H](c1ccc([N+](=O)[O-])cc1)[C@@H](CO)NC(=O)C(Cl)Cl [2.56]
- rate enhancement, kcat/kuncat [2]: 1.8×10^3

Structure (SMILES): CCOP(=O)(Cc1ccc(NC(=O)CCCC(=O)O)cc1)Nc1cc(C(=O)O)cc(C(=O)O)c1 (stereo not drawn) [7.6, Ethyl N-[(3,5-dicarboxy)phenyl]-P-[N-(4'-carboxybutyroyl)-4-aminophenylmethyl]phosphonamidate]
- Ki [1]: 25 nM and 40 nM
- Kd [3]: < 4 nM

Structure (SMILES): O=C(O)CCCC(=O)Nc1ccc(CP(=O)(O)Nc2cc(C(=O)O)cc(C(=O)O)c2)cc1 [7.7, N-[(3,5-Dicarboxy)phenyl]-P-[N-(4'-carboxybutyroyl)-4-aminophenyl-methyl]phosphonamidic acid]
- IC50 [4]: 833 nM
- IC50 [5]: 0.455 nM
- IC50 [6]: 76.9 nM
- IC50 [7]: 10 nM

Structure (SMILES): C=C(O[C@@H]1C=C(C(=O)O)C=C[C@H]1O)C(=O)O [chorismate, (-)-Chorismic acid]
- Km [8]: 15 µM

Structure (SMILES): CS(=O)(=O)OCCN(CCCl)c1ccc(C(=O)O)cc1 [3.16]
- IC50 [9]: 220000 ± 10000 nM

Structure (SMILES): O=C(Nc1cc(C(=O)O)cc(C(=O)O)c1)Oc1ccc([N+](=O)[O-])cc1 [9.9, 4-nitrophenyl N-(3,5-dicarboxyphenyl)carbamate]
- Km [1]: 120 µM
- kcat [1]: 0.3 s⁻¹
- kcat/Km [1]: 0.15 E6
- kcat/kun [1]: 300

Structure (SMILES): O=C(Nc1cc(C(=O)O)cc(C(=O)O)c1)Oc1ccc(Br)cc1 [9.12, 4-bromophenyl N-(3,5-dicarboxyphenyl)carbamate]
- Km [1]: 80 µM
- kcat [1]: 0.1 s⁻¹
- kcat/Km [1]: 0.075 E6
- kcat/kun [1]: 1 E5

Structure (SMILES): O=C(Nc1cc(C(=O)O)cc(C(=O)O)c1)Oc1ccc(N(CCCl)CCCl)cc1 [9.2]
- cytotoxicity of the prodrug alone (LoVo cells): significant amount of background cytotoxicity

Structure (SMILES): O=Cc1ccc(OC(=O)Cc2ccccc2)cc1 [CHO]
- Km [10]: 250 µM
- kcat [10]: 1.0 ± 0.1 s⁻¹
- kcat/Km [10]: 4.1
- Kd [10]: 90000 ± 10000 nM

Structure (SMILES): O=C(Cc1ccccc1)Oc1ccc([N+](=O)[O-])cc1 [NO2]
- Km [10]: 53 µM
- kcat [10]: ca. 25 s^-1
- kcat/Km [10]: ca. 470
- Kd [10]: 1000 nM

Structure (SMILES): CCOP(=O)(Cc1ccc(N)cc1)Nc1cc(C(=O)O)cc(C(=O)O)c1 (stereo not drawn) [7.37, Ethyl N-[(3,5-dicarboxy)phenyl]-P-(4-aminophenylmethyl)phosphonamidate]
- Ka (BIAcore) [11]: no binding
- Ka (BIAcore) [12]: 2.19e+08 M⁻¹
- ka ([12]; biacore): 56600 M⁻¹ s⁻¹
- kd ([12]; biacore): 0.000258 s⁻¹
- kd, mean ([3]; biacore): 2.54e-05 s⁻¹

Structure (SMILES): Cc1ccc(OC(=O)Cc2ccccc2)cc1 [Me]
- Km [10]: ~3000 µM
- kcat [10]: 0.15 ± 0.03 s⁻¹
- kcat/Km [10]: 1.01

Structure (SMILES): CC(C)[C@@H](N)C(=O)OC[C@H]1O[C@@H](n2cc(F)c(=O)[nH]c2=O)C[C@@H]1O [9.4]
- Km [13]: 215 µM and 218 µM
- kcat [13]: 0.0005 s⁻¹

Structure (SMILES): CCOP(=O)(O)Cc1ccc([N+](=O)[O-])cc1 [9.8]
- IC50 [14]: 30 nM

Structure (SMILES): CC(=O)c1ccc(OC(=O)Cc2ccccc2)cc1 [CH3 CO]
- Km [10]: ~3000 µM
- kcat [10]: ca. 0.87 s^-1
- kcat/Km [10]: ca. 0.282

Structure (SMILES): O=C(Cc1ccccc1)Oc1ccc(Cl)cc1 [Cl]
- Km [10]: 720 µM
- kcat [10]: 1.7 ± 0.2 s⁻¹
- kcat/Km [10]: 0.049
- Kd [10]: 180000 ± 40000 nM

Structure (SMILES): O=C(O)CC[C@H](NC(=O)c1ccc(N(CCCl)CCCl)cc1)C(=O)O [3.4, para-[bis(2-chloroethyl)amino]benzoyl-Lglutamic acid]
- mean concentration, Gut [15]: 12.3
- mean concentration, Kidney [15]: 2.9
- mean concentration, Liver [15]: 22.0
- mean concentration, Lung [15]: 0.2
- mean concentration, Tumour [15]: < 0.05
- Km [16]: 4.9 µM

Structure (SMILES): O=C(Nc1cc(C(=O)O)cc(C(=O)O)c1)Oc1ccc(F)cc1 [9.13, 4-Fluorophenyl N-[(3,5-dicarboxy)phenyl]carbamate]
- Vmax [1]: 1.1 µM/min
- Km [1]: 41 µM
- kcat [1]: 0.12 s⁻¹
- kcat/Km [1]: 0.17 E6
- kcat/kun [1]: 4 E5
